The values below come from BindingDB's records for doi:10.1016/j.bioorg.2015.05.008 (Universidade Do Porto, 2015).

pKi: −log10 of the molar value.

As a reminder, the pKi is −log10 of the Ki, conventionally taken in molar units. Read a high pKi as a small Ki.

Holding throughout (experiment): Radioligand Binding Assay
The target of one assay is T1, Adenosine receptor A1 (Homo sapiens, UniProt P30542).
T1 sequence (P30542 whole entry): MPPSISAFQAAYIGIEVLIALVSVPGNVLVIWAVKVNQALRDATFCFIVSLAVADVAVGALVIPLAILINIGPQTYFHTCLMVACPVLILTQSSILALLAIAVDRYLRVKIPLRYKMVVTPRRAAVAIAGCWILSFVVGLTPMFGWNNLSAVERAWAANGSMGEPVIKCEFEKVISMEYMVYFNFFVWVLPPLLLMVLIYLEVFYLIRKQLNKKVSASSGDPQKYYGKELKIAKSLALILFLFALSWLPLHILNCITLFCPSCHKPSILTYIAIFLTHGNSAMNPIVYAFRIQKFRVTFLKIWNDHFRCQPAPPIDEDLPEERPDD
As to the method: (§1) The radioligands used were 1 nM (2R,3R,4S,5R)-2-(2-chloro-6-cyclopentylamino-purin-9-yl)-5-hydroxymethyl-tetrahydro-3,4-diol ([3H]CCPA) for hA1, 10 nM (1-(6-amino-9H-purin-9-yl)-1-deoxy-N-ethyl-β-D-ribofuronamide) ([3H]NECA) for hA2a, and 1 nM 2-(1-hexynyl)-N6-methyladenosine [3H] ([3H]HEMADO) for hA3 receptors.

A further assay deals with T2, Adenosine receptor A3 (Homo sapiens, UniProt P0DMS8).
T2 sequence (P0DMS8 whole entry): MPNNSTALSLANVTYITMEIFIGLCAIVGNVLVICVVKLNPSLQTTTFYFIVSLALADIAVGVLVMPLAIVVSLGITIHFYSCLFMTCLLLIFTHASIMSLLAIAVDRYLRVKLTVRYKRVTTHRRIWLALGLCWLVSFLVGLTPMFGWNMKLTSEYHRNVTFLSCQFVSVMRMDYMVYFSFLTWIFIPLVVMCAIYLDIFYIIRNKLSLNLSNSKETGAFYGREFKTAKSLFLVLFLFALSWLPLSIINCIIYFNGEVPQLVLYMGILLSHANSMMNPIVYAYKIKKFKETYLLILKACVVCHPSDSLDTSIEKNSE
As for the experimental part: as §1

Another assay addresses Adenosine receptor A2a (Homo sapiens, UniProt P29274). As for the experimental part: as §1

Chain of Adenosine receptor A2a (P29274 whole entry): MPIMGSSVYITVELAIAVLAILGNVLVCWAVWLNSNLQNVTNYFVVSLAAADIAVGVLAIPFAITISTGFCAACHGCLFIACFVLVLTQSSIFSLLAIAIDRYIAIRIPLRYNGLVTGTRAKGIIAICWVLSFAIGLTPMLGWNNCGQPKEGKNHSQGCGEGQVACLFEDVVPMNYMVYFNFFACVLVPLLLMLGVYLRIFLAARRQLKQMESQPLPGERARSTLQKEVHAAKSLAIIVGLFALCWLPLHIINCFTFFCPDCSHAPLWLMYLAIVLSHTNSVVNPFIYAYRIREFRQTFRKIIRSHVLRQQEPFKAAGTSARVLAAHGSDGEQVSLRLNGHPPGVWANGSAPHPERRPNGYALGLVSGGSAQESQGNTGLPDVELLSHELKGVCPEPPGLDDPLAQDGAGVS

Turning to `O=C(Nc1cc2ccccc2oc1=O)c1ccco1` [N-(Coumarin-3-yl)furan-2-carboxamide (8)], the values for the pKi on Adenosine receptor A1, at Adenosine receptor A3 and at Adenosine receptor A2a were 5.29, 5.01 and under 4.00, respectively.
Taken in the same sequence, the figures for `C=CC(=O)Nc1c(O)c2ccccc2oc1=O` [N-(4-Hydroxycoumarin-3-yl)acrylamide (3)] were under 4.00, under 4.00 and under 4.00.
In the case of `O=C(Nc1cc2ccccc2oc1=O)c1ccccc1` [N-(2-oxidanylidenechromen-3-yl)benzamide], the pKi at Adenosine receptor A1 is under 4.00; at Adenosine receptor A3, 5.49; on Adenosine receptor A2a, under 4.00.
`O=C(Nc1c(O)c2ccccc2oc1=O)c1ccccc1` [N-(4-hydroxycoumarin-3-yl)benzamide (5)]: the pKi at Adenosine receptor A1, at Adenosine receptor A3 and on Adenosine receptor A2a was under 4.00 each time.
As to `O=C(Nc1cc2ccccc2oc1=O)c1cccnc1` [N-(coumarin-3-yl)nicotinamide (6)], the pKi at Adenosine receptor A1, on Adenosine receptor A3 and at Adenosine receptor A2a was under 4.00 each time.
As to `C=CC(=O)Nc1cc2ccccc2oc1=O` [N-(Coumarin-3-yl)acrylamide (2)], the figures for the pKi on Adenosine receptor A1, on Adenosine receptor A3 and on Adenosine receptor A2a were 5.05, under 4.00 and 4.91, respectively.
Taken in the same sequence, the figures for `O=C(Nc1cc2ccccc2oc1=O)c1cccs1` [N-(coumarin-3-yl)thiophene-2-carboxamide (7)] were 4.79, under 4.22 and under 4.00.
